Values quoted from earlier work, collected in patent publication CN101647784A, “卡马西平缓释片及其制备方法” (Beijing Kexin Bicheng Medicine Technology Development Co Ltd, priority 2008, dated 2010).

Settings: early epilepsy and single seizures; 406 subjects, immediate versus deferred treatment

NC(=O)N1c2ccccc2C=Cc2ccccc21 [卡马西平]
显著影响: effect on time to 1-year remission | effect on time to 2-year remission | effect on time to first seizure
